From patent US4758558A, “N-(substituted)-[7-(2-cyanoacetamido)cephalosporanic]amide derivatives having antibiotic utility” (priority 1982, dated 1988)

Columns and labels:
[1] = system: Pseudomonas aeruginosa; assay: Effect on intestinal bacteria: number of Pseudomonas aeruginosa in feces; type: in vivo, ICR mice; conditions: 500 mg/kg/day
Description: (§1) Effects of the present compound on intestinal bacteria
(§2) Each of the present compounds respectively produced in Examples 1 to 18 was orally administered continuously for 2 days at a daily dose rate of 500 mg/kg body weight to each of five female ICR mice of each group after 6 weeks of their birth.
(§3) Each of the two fecal specimens respectively collected from each mouse before and after one day of the administration was diluted with 100 times by weight of an anaerobic diluent (a phosphoric acid buffer solution) and was ground in a mortar, and 0.1 ml of the thus ground material was smeared on each of the following culture media for the following bacteria, and the thus inoculated culture media were incubated under the following conditions. Thereafter, the number of the following bacteria in each of the thus cultured media was determined.
NAC agar 37° C., one day, […]

[2] = system: Escherichia coli IFO 12734; assay: Antibacterial activity in vitro (MIC) against Escherichia coli; type: cell-based; conditions: IFO12734, Mueller-Hinton agar, 18 to 24 hours, 37° C., read-out: MIC (minimum growth inhibiting concentration) against Escherichia coli
Description: (§4) (c) Anti-bacterial activity (in vitro):
(§5) Minimum concentration of the present compound inhibiting the growth of the following bacteria was determined according to the standard procedures of Japan Society of Chemotherapy:
Escherichia coli IFO 12734 and
(§6) Determination of the antibacterial activity of the present compound produced in Examples 1 to 18, respectively was carried out according to the standard procedures of Japan Society of Chemotherapy for finding MIC (the minimum concentration of a specimen to inhibit the growth of a species of bacteria).
(§7) A series of diluted solutions of each of the present compound were mixed with 9 times by weight of Mueller-Hinton's culture medium as the culture medium for determining the sensitivity of a bacterial species, and flat agar culture plates were prepared by using the thus obtained mixture.
(§8) Each of the liquids respectively containing one of the bacterial species shown in Table 2 was smeared onto each of the thus prepared flat agar culture plates with a platinum loop, in length of about 2 cm, and the thus treated plates were incubated for 18 to 24 hours at 37° C. Thereafter, by observing the growth state of each bacterial species on the cultured plates, the minimum concentration of each compound completely inhibiting the growth of each bacterial species was found.

[3] = system: a species of Lactobacillus; assay: Effect on intestinal bacteria: number of a sp. of Lactobacillus in feces; type: in vivo, ICR mice; conditions: 500 mg/kg/day
Description: (§9) (b) Effect on the intestinal bacterial colonies: […]
as §1, §2, §3
a species of Lactobacillus
LBS agar 37° C., 5 days, […]

[4] = system: Lactobacillus bifidus; assay: Effect on intestinal bacteria: number of Lactobacillus bifidus in feces; type: in vivo, ICR mice; conditions: 500 mg/kg/day
Description: as §9, §1, §2, §3
BS agar 37° C., 5 days, […]

[5] = system: a species of Bacteroides; assay: Effect on intestinal bacteria: number of a sp. of Bacteroides in feces; type: in vivo, ICR mice; conditions: 500 mg/kg/day
Description: as §9, §1, §2, §3
a species of Bacteroides
NBGT agar 37° C., 5 days, […]

[6] = system: a species of Streptococcus; assay: Effect on intestinal bacteria: number of a sp. of Streptococcus in feces; type: in vivo, ICR mice; conditions: 500 mg/kg/day
Description: as §9, §1, §2, §3
a species of Streptococcus
TATAC agar 37° C., one day, […]

[7] = system: Staphylococcus aureus IAM 1011; assay: Antibacterial activity in vitro (MIC) against Staphylococcus aureus; type: cell-based; conditions: IAM1011, Mueller-Hinton agar, 18 to 24 hours, 37° C., read-out: MIC (minimum growth inhibiting concentration) against Staphylococcus aureus
Description: as §4, §5
Staphylococcus aureus IAM 1011
as §6, §7, §8

[8] = system: Escherichia coli; assay: Effect on intestinal bacteria: number of Escherichia coli in feces; type: in vivo, ICR mice; conditions: 500 mg/kg/day
Description: (b) Effect on the intestinal bacterial colonies:
[…] Each portion of the two kinds of the feces was cultured at 25° C. or 37° C. in a variety of culture medium for one to five days to see the state of Escherichia coli, Pseudomonas aeruginosa, a Streptococcus species, a Lactobacillus species, Lactobacillus bifidus and a Bacteroides species in the culture medium.
as §1
as §3, with “specimens respectively collected from each mouse before and after one day of the administration was diluted with 100 times” left out

[9] = after oral administration for 2 days, female ICR mice, before: 6.4
[10] = after oral administration for 2 days, female ICR mice, before: <3.0
[11] = after oral administration for 2 days, female ICR mice, before: 9.0
[12] = after oral administration for 2 days, female ICR mice, before: 8.3
[13] = after oral administration for 2 days, female ICR mice, before: 8.2
[14] = after oral administration for 2 days, female ICR mice, before: 6.8

Row | Structure (SMILES) | Number of Pseudomonas aeruginosa after the administration ([1]; mouse, in vivo, po) | MIC [2] | Number of a sp. of Lactobacillus after the administration ([3]; mouse, in vivo, po) | Number of Lactobacillus bifidus after the administration ([4]; mouse, in vivo, po) | Number of a sp. of Bacterioides after the administration ([5]; mouse, in vivo, po) | Number of a sp. of Streptococcus after the administration ([6]; mouse, in vivo, po) | MIC [7] | Number of Escherichia coli after the administration [8, 9] | Number of Pseudomonas aeruginosa after the administration [1, 10] | Number of a sp. of Lactobacillus after the administration [3, 11] | Number of Lactobacillus bifidus after the administration [4, 12] | Number of a sp. of Bacterioides after the administration [5, 13] | Number of a sp. of Streptococcus after the administration [6, 14] | Number of Escherichia coli after the administration ([8]; mouse, in vivo, po)
1 | COC(=O)CNC(=O)c1ccc(NC(=O)C2=C(COC(C)=O)CSC3C(NC(=O)CSc4ccncc4)C(=O)N23)cc1 (stereo not shown) [Example 3, N-(4-carbomethoxymethylcarbamoylphenyl)-[7-(4-pyridylthioacetamido)cephalosporanic]amide] | < 3.0 Log10 (number of bacteria/g feces) | ≥ 100 µg/mL | 9.1 Log10 (number of bacteria/g feces) | 8.5 Log10 (number of bacteria/g feces) | 8.1 Log10 (number of bacteria/g feces) | 6.7 Log10 (number of bacteria/g feces) | ≥ 50 µg/mL | 6.5 Log10 (number of bacteria/g feces) | – | – | – | – | – | –
2 | COC(=O)CNC(=O)c1ccc(NC(=O)C2=C(CSc3nnc(C)s3)CSC3C(NC(=O)Cn4cnnn4)C(=O)N23)cc1 (stereo not shown) [Example 15, N-(4-carbomethoxymethylcarbamoylphenyl)-{7-(1-1H-tetrazolylacetamido)-3-[2-(5-methyl-1,3,4-thiadiazolyl)thiomethyl]-3-cephem-4-carboxylic}amide] | < 3.0 Log10 (number of bacteria/g feces) | ≥ 100 µg/mL | 9.1 Log10 (number of bacteria/g feces) | 8.2 Log10 (number of bacteria/g feces) | 8.2 Log10 (number of bacteria/g feces) | 6.8 Log10 (number of bacteria/g feces) | ≥ 12.5 µg/mL | 6.5 Log10 (number of bacteria/g feces) | – | – | – | – | – | –
3 | CC(=O)OCC1=C(C(=O)Nc2ccc(C(N)=O)cn2)N2C(=O)C(NC(=O)CSc3ccncc3)C2SC1 (stereo not shown) [Example 6, N-(nicotinamido)-[7-(4-pyridylthioacetamido)cephalosporanic acid]amide] | < 3.0 Log10 (number of bacteria/g feces) | ≥ 100 µg/mL | 9.0 Log10 (number of bacteria/g feces) | 8.6 Log10 (number of bacteria/g feces) | 8.7 Log10 (number of bacteria/g feces) | 6.7 Log10 (number of bacteria/g feces) | ≥ 100 µg/mL | 6.7 Log10 (number of bacteria/g feces) | – | – | – | – | – | –
4 | Cc1ccc(NC(=O)C2=C(CSc3nnc(C)s3)CSC3C(NC(=O)Cn4cnnn4)C(=O)N23)cc1 (stereo not shown) [Example 16, N-(4-methylphenyl)-{7-(1-1H-tetrazolylacetamido)-3-[2-(5-methyl-1,3,4-thiadiazolyl)thiomethyl]-3-cephem-4-carboxylic}amide] | < 3.0 Log10 (number of bacteria/g feces) | ≥ 100 µg/mL | 9.2 Log10 (number of bacteria/g feces) | 8.3 Log10 (number of bacteria/g feces) | 8.1 Log10 (number of bacteria/g feces) | 6.5 Log10 (number of bacteria/g feces) | ≥ 12.5 µg/mL | 6.5 Log10 (number of bacteria/g feces) | – | – | – | – | – | –
5 | CC(=O)OCC1=C(C(=O)O)N2C(=O)[C@@H](NC(=O)CSc3ccncc3)[C@H]2SC1 [CEPHAPIRIN, 7(4-pyridylthioacetamido)cephalosporanic acid, reference compound] | – | – | – | – | – | – | – | 9.0 Log10 (number of bacteria/g feces) | < 3.0 Log10 (number of bacteria/g feces) | 4.1 Log10 (number of bacteria/g feces) | 9.1 Log10 (number of bacteria/g feces) | 8.5 Log10 (number of bacteria/g feces) | 9.1 Log10 (number of bacteria/g feces) | –
6 | CC(=O)OCC1=C(C(=O)O)N2C(=O)C(NC(=O)CC#N)C2SC1 (stereo not shown) [Compound X, sodium 7(2-cyanoacetamido)cephalosporanate, reference compound] | < 3.0 Log10 (number of bacteria/g feces) | – | 4.6 Log10 (number of bacteria/g feces) | 6.0 Log10 (number of bacteria/g feces) | 8.2 Log10 (number of bacteria/g feces) | 9.1 Log10 (number of bacteria/g feces) | – | 9.0 Log10 (number of bacteria/g feces) | – | – | – | – | – | –
7 | CC1=C(C(=O)O)N2C(=O)[C@@H](NC(=O)[C@H](N)c3ccccc3)[C@H]2SC1 [CEFALEXIN, 7(D-alpha-amino-alpha-phenylacetamido)-3-methyl-3-cephem-4-carboxylic aci, reference compound] | – | – | – | – | – | – | – | 9.2 Log10 (number of bacteria/g feces) | < 3.0 Log10 (number of bacteria/g feces) | 4.0 Log10 (number of bacteria/g feces) | 8.0 Log10 (number of bacteria/g feces) | 8.1 Log10 (number of bacteria/g feces) | 8.5 Log10 (number of bacteria/g feces) | –
8 | COC(=O)CNC(=O)c1ccc(NC(=O)C2=C(COC(C)=O)CSC3C(NC(=O)CC#N)C(=O)N23)cc1 (stereo not shown) [Example 9, N-(4-carbomethoxymethylcarbamoylphenyl)-[7-(2-cyanoacetamido)cephalosporanic]amide] | < 3.0 Log10 (number of bacteria/g feces) | ≥ 100 µg/mL | 8.9 Log10 (number of bacteria/g feces) | 8.4 Log10 (number of bacteria/g feces) | 8.5 Log10 (number of bacteria/g feces) | 6.7 Log10 (number of bacteria/g feces) | ≥ 100 µg/mL | 6.5 Log10 (number of bacteria/g feces) | – | – | – | – | – | –
9 | Cc1nnc(SCC2=C(C(=O)O)N3C(=O)[C@@H](NC(=O)Cn4cnnn4)[C@H]3SC2)s1 [SODIUM CEFAZORIN, reference compound] | < 3.0 Log10 (number of bacteria/g feces) | – | 4.0 Log10 (number of bacteria/g feces) | 9.1 Log10 (number of bacteria/g feces) | 7.3 Log10 (number of bacteria/g feces) | 8.6 Log10 (number of bacteria/g feces) | – | – | – | – | – | – | – | 8.9 Log10 (number of bacteria/g feces)
